Drawing on patent US11203574B2 (BioCryst Pharmaceuticals, Inc., priority 2014, dated 2021), this text covers Ki for 28 compounds.

Read-outs that look alike come from different tables or passages of the source.

For the experiment, the target named is human plasma kallikrein (Homo sapiens (Human), UniProt P03952). The experiment can be described thus: Plasma kallikrein activity assay (chromogenic substrate S2302). The experiment is classed as biochemical. As to conditions: 2 nM kallikrein, 80 μM S2302, 30° C., pH 7.8, Ki by Cheng-Prusoff equation, values given as ranges.
human plasma kallikrein, sequence (P03952 whole entry, looked up): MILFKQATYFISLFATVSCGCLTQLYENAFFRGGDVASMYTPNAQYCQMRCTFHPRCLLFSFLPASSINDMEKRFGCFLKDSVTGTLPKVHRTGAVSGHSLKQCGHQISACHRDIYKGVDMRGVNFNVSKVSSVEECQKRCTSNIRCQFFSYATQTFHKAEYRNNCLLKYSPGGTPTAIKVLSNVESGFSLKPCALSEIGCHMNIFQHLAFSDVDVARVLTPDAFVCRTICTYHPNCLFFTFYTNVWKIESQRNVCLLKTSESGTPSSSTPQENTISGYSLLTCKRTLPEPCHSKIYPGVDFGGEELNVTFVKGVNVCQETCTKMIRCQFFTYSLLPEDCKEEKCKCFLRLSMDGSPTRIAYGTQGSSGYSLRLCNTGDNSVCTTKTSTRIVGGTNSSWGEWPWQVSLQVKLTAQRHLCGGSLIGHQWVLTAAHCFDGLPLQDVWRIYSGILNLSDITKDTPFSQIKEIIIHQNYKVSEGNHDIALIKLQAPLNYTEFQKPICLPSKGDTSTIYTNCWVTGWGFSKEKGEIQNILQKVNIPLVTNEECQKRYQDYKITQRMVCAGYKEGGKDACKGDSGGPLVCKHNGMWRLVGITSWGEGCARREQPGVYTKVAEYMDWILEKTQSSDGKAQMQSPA
human plasma kallikrein, sequence (P03952 whole entry partner, looked up): as the sequence (P03952 whole entry, looked up) above

Method: Plasma Kallikrein Activity Assay.
The effect of compounds of the invention on human plasma kallikrein activity was determined using the chromogenic substrates (DiaPharma Group, Inc., West Chester, Ohio, USA). In these experiments, 2 nM kallikrein (Enzyme Research Laboratories, South Bend, Ind., USA) was incubated with 80 μM S2302 (H-D-Pro-Phe-Arg-p-nitroaniline) in the absence or presence of increasing concentrations of compounds of the invention in a final volume of 200 μL Tris-HCl buffer (200 mM NaCl; mM CaCl2; 50 mM Tris-HCl, pH 7.8).
Data were analyzed using SigmaPlot software (Systat Software, Inc., San Jose, Calif., USA) (Four Parameter Logistic Curve).

The Ki is the dissociation constant of the complex between target and ligand, obtained from inhibition or displacement. `NCc1cccc(-n2nc(C(F)(F)F)cc2C(=O)Nc2cccc(C(NCC3CC3)c3ccccc3)c2F)c1` (stereo not shown) [88b, 1-(3-(aminomethyl)phenyl)-N-(3-((cyclopropylmethylamino)(phenyl)methyl)-2-fluorophenyl)-3-(trifluoromethyl)-1H-pyrazole-5-carboxamide]: for the setting “read-out: Ki”, the inhibitory constant (Ki) fell in the range of 0.1 to 50 nM.

`NCc1cccc(-n2nc(C(F)(F)F)cc2C(=O)Nc2cccc(C(CCC3CC3)n3ccnc3)c2)c1` (stereo not shown) [89g, 1-(3-(aminomethyl)phenyl)-N-(3-(3-cyclopropyl-1-(1H-imidazol-1-yl)propyl)phenyl)-3-(trifluoromethyl)-1H-pyrazole-5-carboxamide]: the Ki (read-out: Ki) was 0.1 to 50 nM.

On to `NCc1cccc(-n2nc(C(F)(F)F)cc2C(=O)Nc2cccc(C(O)(CCC3CC3)c3ccncc3)c2)c1` (stereo not shown) [92g, 1-(3-(aminomethyl)phenyl)-N-(3-(3-cyclopropyl-1-hydroxy-1-(pyridin-4-yl)propyl)phenyl)-3-(trifluoromethyl)-1H-pyrazole-5-carboxamide], for which the inhibition constant Ki (read-out: Ki) was in the range of 0.1 to 50 nM.

Consider `NCc1cccc(-n2nc(C(F)(F)F)cc2C(=O)Nc2cc(C(NCC3CC3)c3cccnc3)ccc2F)c1` (stereo not shown) [94b, 1-(3-(aminomethyl)phenyl)-N-(5-((cyclopropylmethylamino)(pyridin-3-yl)methyl)-2-fluorophenyl)-3-(trifluoromethyl)-1H-pyrazole-5-carboxamide], for which the Ki (read-out: Ki) was 0.1 to 50 nM.

As to `NCc1cccc(-n2nc(C(F)(F)F)cc2C(=O)Nc2cc(C(NCC3CC3)c3cccnc3)ccc2Cl)c1` (stereo not shown) [96f, 1-(3-(Aminomethyl)phenyl)-N-(2-chloro-5-((cyclopropylmethylamino)(pyridin-3-yl)methyl)phenyl)-3-(trifluoromethyl)-1H-pyrazole-5-carboxamide], the Ki (read-out: Ki) lay within 0.1 to 50 nM.

On to `NCc1cccc(-n2nc(C(F)(F)F)cc2C(=O)Nc2cccc(C(CCC3CC3)N3CCCC3)c2)c1` (stereo not shown) [98b, 1-(3-(aminomethyl)phenyl)-N-(3-(3-cyclopropyl-1-(pyrrolidin-1-yl)propyl)phenyl)-3-(trifluoromethyl)-1H-pyrazole-5-carboxamide], for which the Ki (read-out: Ki) lay in the range of 0.1 to 50 nM.

In the case of `NCc1cccc(-n2nc(C(F)(F)F)cc2C(=O)Nc2cccc(C(O)(CNC3CC3)c3ccccc3)c2)c1` (stereo not shown) [99g, 1-(3-(aminomethyl)phenyl)-N-(3-(2-(cyclopropylamino)-1-hydroxy-1-phenylethyl)phenyl)-3-(trifluoromethyl)-1H-pyrazole-5-carboxamide], under “read-out: Ki”, the inhibitory constant (Ki) lay within 0.1 to 50 nM.

Consider `NCc1cccc(-n2nc(C(F)(F)F)cc2C(=O)Nc2cc(C(NCC3CC3)c3ccccn3)ccc2F)c1` (stereo not shown) [100e, 1-(3-(aminomethyl)phenyl)-N-(5-((cyclopropylmethylamino)(pyridin-2-yl)methyl)-2-fluorophenyl)-3-(trifluoromethyl)-1H-pyrazole-5-carboxamide], for which the inhibitory constant (Ki) (read-out: Ki) was in the range of 0.1 to 50 nM.

On to `NCc1cccc(-n2nc(C(F)(F)F)cc2C(=O)Nc2cc(C(NCC3CC3)c3nccs3)ccc2F)c1` (stereo not shown) [101e, 1-(3-(Aminomethyl)phenyl)-N-(5-((cyclopropylmethylamino)(thiazol-2-yl)methyl)-2-fluorophenyl)-3-(trifluoromethyl)-1H-pyrazole-5-carboxamide], for which the inhibitory constant (Ki) (read-out: Ki) was 0.1 to 50 nM.

Take `NCc1cccc(-n2nc(C(F)(F)F)cc2C(=O)Nc2cccc(C(NCC3CC3)c3cccc(N)c3)c2)c1` (stereo not shown) [102b, 1-(3-(aminomethyl)phenyl)-N-(3-((3-aminophenyl)(cyclopropylmethylamino)methyl)phenyl)-3-(trifluoromethyl)-1H-pyrazole-5-carboxamide]: the inhibition constant Ki (read-out: Ki) lay within 0.1 to 50 nM.

For the compound `NCc1cccc(-n2nc(C(F)(F)F)cc2C(=O)Nc2cccc(C(CCC3CC3)c3cc[nH]c3)c2)c1` (stereo not shown) [103b, 1-(3-(aminomethyl)phenyl)-N-(3-(3-cyclopropyl-1-(1H-pyrrol-3-yl)propyl)phenyl)-3-(trifluoromethyl)-1H-pyrazole-5-carboxamide], the inhibitory constant (Ki) (read-out: Ki) was in the range of 0.1 to 50 nM.

Consider `Cn1cc(C(NCC2CC2)c2cccc(NC(=O)c3cc(C(F)(F)F)nn3-c3cccc(CN)c3)c2)cn1` (stereo not shown) [104f, 1-(3-(aminomethyl)phenyl)-N-(3-((cyclopropylmethylamino)(1-methyl-1H-pyrazol-4-yl)methyl)phenyl)-3-(trifluoromethyl)-1H-pyrazole-5-carboxamide], for which, for the setting “read-out: Ki”, the inhibition constant Ki is 0.1 to 50 nM.

Take `COc1ccc(C(NCC2CC2)c2cccc(NC(=O)c3cc(C(F)(F)F)nn3-c3cccc(CN)c3)c2)cc1` (stereo not shown) [105g, 1-(3-(Aminomethyl)phenyl)-N-(3-(((cyclopropylmethyl)amino)(4-methoxyphenyl)methyl)phenyl)-3-(trifluoromethyl)-1H-pyrazole-5-carboxamide]: where the note is “read-out: Ki”, the inhibition constant (Ki) lay within 0.1 to 50 nM.

Regarding `NCc1cccc(-n2nc(C(F)(F)F)cc2C(=O)Nc2cccc(C(NCC3CC3)c3ccccc3OCc3ccccc3)c2)c1` (stereo not shown) [106a, 1-(3-(aminomethyl)phenyl)-N-(3-((2-(benzyloxy)phenyl)(cyclopropylmethylamino)methyl)phenyl)-3-(trifluoromethyl)-1H-pyrazole-5-carboxamide], the Ki (read-out: Ki) is 0.1 to 50 nM.

For the compound `COc1cccc(C(NCC2CC2)c2cccc(NC(=O)c3cc(C(F)(F)F)nn3-c3cccc(CN)c3)c2)c1` (stereo not shown) [109f, 1-(3-(Aminomethyl)phenyl)-N-(3-((cyclopropylmethylamino)(3-methoxyphenyl)methyl)phenyl)-3-(trifluoromethyl)-1H-pyrazole-5-carboxamide], the Ki (read-out: Ki) lay in the range of 0.1 to 50 nM.

Turning to `Cc1cccc(C(NCC2CC2)c2cccc(NC(=O)c3cc(C(F)(F)F)nn3-c3cccc(CN)c3)c2)c1` (stereo not shown) [110f, 1-(3-(Aminomethyl)phenyl)-N-(3-((cyclopropylmethylamino)(m-tolyl)methyl)phenyl)-3-(trifluoromethyl)-1H-pyrazole-5-carboxamide], the inhibitory constant (Ki) (read-out: Ki) fell in the range of 0.1 to 50 nM.

Turning to `NCc1cccc(-n2nc(C(F)(F)F)cc2C(=O)Nc2cccc(C(NCC3CC3)c3cccc(C(F)(F)F)c3)c2)c1` (stereo not shown) [111f, 1-(3-(Aminomethyl)phenyl)-N-(3-((cyclopropylmethylamino)(3-(trifluoromethyl)phenyl)methyl)phenyl)-3-(trifluoromethyl)-1H-pyrazole-5-carboxamide], the Ki (read-out: Ki) was 0.1 to 50 nM.

Regarding `NCc1cccc(-n2nc(C(F)(F)F)cc2C(=O)Nc2cccc(C(NCC3CC3)c3ccc(S(N)(=O)=O)cc3)c2)c1` (stereo not shown) [112g, 1-(3-(aminomethyl)phenyl)-N-(3-((cyclopropylmethylamino)(4-sulfamoylphenyl)methyl)phenyl)-3-(trifluoromethyl)-1H-pyrazole-5-carboxamide], for the setting “read-out: Ki”, the inhibitory constant (Ki) lay in the range of 0.1 to 50 nM.

On to `CS(=O)(=O)c1ccc(C(NCC2CC2)c2cccc(NC(=O)c3cc(C(F)(F)F)nn3-c3cccc(CN)c3)c2)cc1` (stereo not shown) [113f, 1-(3-(aminomethyl)phenyl)-N-(3-((cyclopropylmethylamino)(4-(methylsulfonyl)phenyl)methyl)phenyl)-3-(trifluoromethyl)-1H-pyrazole-5-carboxamide], for which the Ki (read-out: Ki) was in the range of 0.1 to 50 nM.

For `CS(=O)(=O)c1cccc(C(NCC2CC2)c2cccc(NC(=O)c3cc(C(F)(F)F)nn3-c3cccc(CN)c3)c2)c1` (stereo not shown) [114f, 1-(3-(aminomethyl)phenyl)-N-(3-((cyclopropylmethylamino)(3-(methylsulfonyl)phenyl)methyl)phenyl)-3-(trifluoromethyl)-1H-pyrazole-5-carboxamide], the Ki (read-out: Ki) fell in the range of 0.1 to 50 nM.

Turning to `NCc1cccc(-n2nc(C(F)(F)F)cc2C(=O)Nc2cccc(C(NC(=O)C3CC3)c3ccccc3)c2)c1` (stereo not shown) [115e, 1-(3-(aminomethyl)phenyl)-N-(3-(cyclopropanecarboxamido(phenyl)methyl)phenyl)-3-(trifluoromethyl)-1H-pyrazole-5-carboxamide], the Ki (read-out: Ki) fell in the range of 50 to 100 nM.

As to `CCc1cccc(C(NCC2CC2)c2cccc(NC(=O)c3cc(C(F)(F)F)nn3-c3cccc(CN)c3)c2)c1` (stereo not shown) [116e, 1-(3-(aminomethyl)phenyl)-N-(3-((cyclopropylmethylamino)(3-ethylphenyl)methyl)phenyl)-3-(trifluoromethyl)-1H-pyrazole-5-carboxamide], the inhibitory constant (Ki) (read-out: Ki) lay in the range of 0.1 to 50 nM.

For `NCc1cccc(-n2nc(C(F)(F)F)cc2C(=O)Nc2cccc(C(NCC3CC3)c3ccccc3F)c2)c1` (stereo not shown) [117e, 1-(3-(aminomethyl)phenyl)-N-(3-((cyclopropylmethylamino)(2-fluorophenyl)methyl)phenyl)-3-(trifluoromethyl)-1H-pyrazole-5-carboxamide], the Ki (read-out: Ki) fell in the range of 0.1 to 50 nM.

For `NCc1cccc(-n2nc(C(F)(F)F)cc2C(=O)Nc2cccc(C(NCC3CC3)c3c4ccccc4c(Cl)c4ccccc34)c2)c1` (stereo not shown) [118f, 1-(3-(aminomethyl)phenyl)-N-(3-((10-chloroanthracen-9-yl)(cyclopropylmethylamino)methyl)phenyl)-3-(trifluoromethyl)-1H-pyrazole-5-carboxamide], the inhibitory constant (Ki) (read-out: Ki) lay within 0.1 to 50 nM.

For `CS(=O)(=O)c1ccccc1C(NCC1CC1)c1cccc(NC(=O)c2cc(C(F)(F)F)nn2-c2cccc(CN)c2)c1` (stereo not shown) [121f, 1-(3-(aminomethyl)phenyl)-N-(3-((cyclopropylmethylamino)(2-(methylsulfonyl)phenyl)methyl)phenyl)-3-(trifluoromethyl)-1H-pyrazole-5-carboxamide], the inhibition constant Ki (read-out: Ki) fell in the range of 0.1 to 50 nM.

For `Cc1ccc(C(NCC2CC2)c2cccc(NC(=O)c3cc(C(F)(F)F)nn3-c3cccc(CN)c3)c2)cc1` (stereo not shown) [122g, 1-(3-(aminomethyl)phenyl)-N-(3-(((cyclopropylmethyl)amino)(p-tolyl)methyl)phenyl)-3-(trifluoromethyl)-1H-pyrazole-5-carboxamide], the Ki (read-out: Ki) lay within 0.1 to 50 nM.

Turning to `NCc1cccc(-n2nc(C(F)(F)F)cc2C(=O)Nc2cccc(C(NCC3CC3)c3cccc(OC(F)(F)F)c3)c2)c1` (stereo not shown) [124f, 1-(3-(aminomethyl)phenyl)-N-(3-((cyclopropylmethylamino)(3-(trifluoromethoxy)phenyl)methyl)phenyl)-3-(trifluoromethyl)-1H-pyrazole-5-carboxamide], for the setting “read-out: Ki”, the Ki was in the range of 0.1 to 50 nM.

`NCc1cccc(-n2nc(C(F)(F)F)cc2C(=O)Nc2cccc(C(NCC3CC3)c3cc4ccccc4c4ccccc34)c2)c1` (stereo not shown) [125g, 1-(3-(Aminomethyl)phenyl)-N-(3-((cyclopropylmethylamino)(phenanthren-9-yl)methyl)phenyl)-3-(trifluoromethyl)-1H-pyrazole-5-carboxamide] displayed a Ki (Ki) of 0.1 to 50 nM.
